Measured values published in paper PMC7582905, “Effect of Disulfide Cyclization of Ultrashort Cationic Lipopeptides on Antimicrobial Activity and Cytotoxicity” (International Journal of Molecular Sciences, 2020).
Where a SMILES comes first, the peptide text is derived from it. Bridges are numbered along the chain shown (N, C = ends). The star is where a group is joined. Palmitoyl = CCCCCCCCCCCCCCCC(=O)*

Assays:
Format in all cases: cell-based
[1] = tested on: Candida albicans ATCC 10231; conditions: ATCC 10231, 24 h
Description: (§1) The Staphylococcus aureus ATCC 25923, Staphylococcus epidermidis ATCC 14990, Escherichia coli ATCC 25922, Pseudomonas aeruginosa ATCC 9027, Candida albicans ATCC 10231, Candida glabrata ATCC 15126, Candida lipolytica PCM 2680-FY, and Candida tropicalis PCM 2709-FY strains were acquired from the Polish Collection of Microorganisms (PCM, Polish Academy of Sciences, Wrocław, Poland) and from the American Type Culture Collection (ATCC). All the strains were stored at −80 °C in Roti-Store cryo vials and before the tests were transferred into fresh Mueller–Hinton broth (MHB, Biocorp, Warsaw, Poland) for bacteria or RPMI-1640 (Sigma-Aldrich, Steinheim, Germany) for fungi and incubated for 24 h at 37 °C. Then, the cultures were seeded on Mueller–Hinton agar (BioMaxima, Lublin, Poland) or Sabouraud dextrose agar (SDA, BioMaxima, Lublin, Poland) plates, respectively, and incubated as just mentioned. These agar cultures were used for further microbiological assays. Cell densities for all assays were adjusted spectrophotometrically (Multiskan GO Microplate Spectrophotometer, Thermo Fisher Scientific, Vantaa, Finland) at 600 and 660 nm for bacteria and fungi, respectively.
(§2) MBECs were determined on 96-well polystyrene flat-bottom plates. For this purpose, 24 h cultures of microorganisms were diluted to obtain final density 5.0 × 10^5 CFU/mL and 2.0 × 10^5 CFU/mL of bacteria and fungi, respectively. Briefly, 100 µL of cell suspension was added into the test plates. After 24 h of incubation at 37 °C the wells were rinsed three times with a phosphate buffer saline (PBS, pH 7.4) to remove non-adherent cells. Subsequently, 100 μL of the test compounds in concentration range (0.5–256 μg/mL) were added to each well. After 24 h of incubation at 37 °C, 20 μL of a cell viability reagent was added (resazurin, 4 g/L; Sigma Aldrich, St. Louis, MO, USA). The MBEC was read after 1 h. The determined values were recorded as the lowest concentration at which the reduction of resazurin (from blue to pink) was lower or equal to 10 ± 0.5% as compared to the positive (100%) and negative (0%) controls. The reduction was monitored by measuring absorbance at 570 nm (reduced) and 600 nm (oxidized) using a microplate spectrophotometer (Multiskan GO Microplate Spectrophotometer, Thermo Fisher Scientific, Vantaa, Finland). All experiments were conducted in triplicate.

[2] = tested on: Candida glabrata ATCC 15126; conditions: ATCC 15126, 24 h
Description: as §1, §2

[3] = tested on: Candida lipolytica PCM 2680-FY; conditions: 24 h
Description: as §1, §2

[4] = tested on: Candida tropicalis PCM 2709-FY; conditions: PCM 2709-FY, 24 h
Description: as §1, §2

[5] = tested on: Escherichia coli ATCC 25922; conditions: ATCC 25922, 24 h
Description: as §1, §2

[6] = tested on: Pseudomonas aeruginosa ATCC 9027; conditions: ATCC 9027, 24 h
Description: as §1, §2

[7] = tested on: Staphylococcus epidermidis ATCC 14990; conditions: ATCC 14990, 24 h
Description: as §1, §2

[8] = tested on: human red blood cells (hRBCs); experiment: Hemolysis assay; conditions: peptide concentration causing 50% hemolysis; 4% (v/v) hRBCs in PBS, 1 h, 37 °C, absorbance 540 nm, triplicate
Description: The hemolysis assay was performed by using the method reported previously. Fresh human red blood cells (hRBCs) with anticoagulant (EDTA) were rinsed three times with a PBS by centrifugation at 800× g for 10 min and diluted with PBS. The lipopeptides were serially diluted on a 96-well microtiter polystyrene plate and hRBCs were added up to a final volume of 100 μL. The peptide concentration ranged between 0.5 and 256 μg/mL and the final hRBCs concentration was 4% (v/v). Controls for zero hemolysis (blank) and 100% hemolysis consisted of hRBCs suspended in PBS and 1% of Triton-X 100, respectively. The plate was incubated for 1 h at 37 °C and then centrifuged (800× g, 10 min, 4 °C). Subsequently, the supernatant was […] to new microtiter plates and the absorbance at 540 nm was measured. All experiments were conducted in triplicate. HC50 was calculated using an ic50.tk tool. Protocol of the study received approval from the local Bioethics Committee at the Medical University of Gdańsk (NKBBN/262/2019, approval date: 10 June 2019).

[9] = tested on: human cervical adenocarcinoma cell line (HeLa S3); experiment: MTT assay; conditions: 24 h incubation at 37 °C, six replicates per concentration, repeated at least twice
Description: (§3) To assess the cytotoxicity of the test lipopeptides (IC50), the classic MTT assay on 96-well polystyrene plates was performed for human keratinocytes (HaCaT) and human cervical adenocarcinoma cell line (HeLa S3) acquired from the ATCC. The assay utilizes colorimetric determination of the cell metabolic activity and the color intensity reflects the number of live cells that can be measured spectrophotometrically. The cell line was cultured in a Dulbecco’s modified Eagle Medium (Invitrogen) supplemented with 10% fetal bovine serum (v/v), 100 units/mL of penicillin, 100 μg/mL of streptomycin, and 2 mM l-glutamine and was stored at 37 °C in a humidified 5% CO2 incubator. Briefly, a day after plating of 500 cells per well, a series of concentrations (0.1–200 μg/mL) of the test compounds were applied. DMSO was added to the control cells at a final concentration of 1.0% (v/v), which was related to the maximal concentration of the solvent compounds used in the experiment. After 24 h of incubation with the lipopeptides at 37 °C in a humidified 5% CO2 incubator, a medium containing 1 mg/mL of MTT (3-(4,5-dimethylthiazol-2-yl)-2,5-diphenyltetrazolium bromide) was added to the wells up to a final concentration of 0.5 mg/mL. Subsequently, the plates were incubated at 37 °C for 4 h. Then, the medium was removed by suction, and the formazan product was solubilized with DMSO. The background absorbance at 630 nm was subtracted from that at 570 nm for each well (Epoch, BioTek Instruments, Winooski, VT, USA). Six replicates were conducted for each concentration. All experiments were repeated at least twice and the resulting IC50 values were calculated with a GraFit 7 software (v. 7.0, Erithacus, Berkley, CA, USA).

[10] = tested on: human keratinocytes (HaCaT); experiment: MTT assay; conditions: 24 h incubation at 37 °C, six replicates per concentration, repeated at least twice
Description: as §3

HeLa IC50 [9] | Compound | MBEC C. albicans [1] | MBEC C. glabrata [2] | MBEC C. lipolytica [3] | MBEC C. tropicalis [4] | MBEC E. coli [5] | MBEC P. aeruginosa [6] | MBEC S. epidermidis [7] | HC50 [8] | HaCaT IC50 [10]
3.9 ± 1.1 µg/mL | CCCCCCCCCCCCCCCC(=O)N[C@@H](CCCCN)C(=O)N[C@@H](CCCCN)C(=O)N[C@@H](CCCCN)C(N)=O [L1, C16-KKK-NH2] | 256 µg/mL | 256 µg/mL | 64 µg/mL | 128 µg/mL | 64 µg/mL | 128 µg/mL | 32 µg/mL | 90.0 ± 6.5 µg/mL | 5.2 ± 0.6 µg/mL
8.4 ± 1.7 µg/mL | CCCCCCCCCCCCCCCC(=O)N[C@@H](CCCNC(=N)N)C(=O)N[C@@H](CCCCN)C(=O)N[C@@H](CCCCN)C(=O)N[C@@H](CCCCN)C(N)=O [L3, C16-RKKK-NH2] (Palmitoyl-RKKK-NH2) | 128 µg/mL | 128 µg/mL | 32 µg/mL | 32 µg/mL | 128 µg/mL | 256 µg/mL | 32 µg/mL | 79.1 ± 6.1 µg/mL | 23.6 ± 3.4 µg/mL

Continued, compound first:

Compound | HeLa IC50 [9] | MBEC C. albicans [1] | MBEC C. glabrata [2] | MBEC C. lipolytica [3] | MBEC C. tropicalis [4] | MBEC E. coli [5] | MBEC P. aeruginosa [6] | MBEC S. epidermidis [7] | HC50 [8] | HaCaT IC50 [10]
CCCCCCCCCCCCCCCC(=O)N[C@H]1CSSC[C@@H](C(N)=O)NC(=O)[C@H](CCCCN)NC(=O)[C@H](CCCCN)NC(=O)[C@H](CCCCN)NC1=O [C1, C16-CKKKC-NH2] (Palmitoyl-CKKKC-NH2; disulfide 1-5) | 25.5 ± 2.9 µg/mL | 256 µg/mL | 256 µg/mL | 64 µg/mL | 128 µg/mL | 256 µg/mL | 256 µg/mL | 32 µg/mL | 43.9 ± 3.5 µg/mL | 23.6 ± 6.0 µg/mL
CCCCCCCCCCCCCCCC(=O)N[C@H]1CSSC[C@@H](C(N)=O)NC(=O)[C@H](CCCCN)NC(=O)[C@H](CCCCN)NC(=O)[C@H](CCCNC(=N)N)NC(=O)[C@H](CCCNC(=N)N)NC1=O [C7, C16-CRRKKC-NH2] (Palmitoyl-CRRKKC-NH2; disulfide 1-6) | 20.9 ± 2.1 µg/mL | 64 µg/mL | 64 µg/mL | 16 µg/mL | 32 µg/mL | 256 µg/mL | 256 µg/mL | 64 µg/mL | 92.0 ± 9.6 µg/mL | 21.3 ± 8.2 µg/mL
CCCCCCCCCCCCCCCC(=O)N[C@H]1CSSC[C@@H](C(N)=O)NC(=O)[C@H](CCCCN)NC(=O)[C@H](CCCCN)NC(=O)[C@H](CCCNC(=N)N)NC(=O)[C@H](CCCCN)NC1=O [C4, C16-CKRKKC-NH2] (Palmitoyl-CKRKKC-NH2; disulfide 1-6) | 27.5 ± 3.4 µg/mL | 32 µg/mL | 64 µg/mL | 16 µg/mL | 32 µg/mL | 64 µg/mL | >256 µg/mL | 32 µg/mL | 122.4 ± 16.5 µg/mL | 33.8 ± 3.1 µg/mL
